Experimental data from the supplement of paper PMC10949913.

Assays:
[1] = system: NCI-H295R; test: area under concentration-response curve (viability) (AUC (a.u.)); higher = less active; details: 48 h
How it was run: (§1)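 Three adrenocortical carcinoma cell lines were plated in 1,536-well plates at 500–1,000 cells/well in 5 µL medium, and 23 nL of each library compound was added at 11 concentrations. After 48 h, CellTiter-Glo was applied for 15 minutes at room temperature before luminescence was read. Each plate's signals were normalised to vehicle and empty-well controls. AC50 and area under the curve were taken from fitted concentration-response curves, with only inhibitory or non-responding curve classes retained.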

[2] = system: CU-ACC1; test: as above; details: 48 h
How it was run: as §1

SMILES | area under concentration-response curve [1] | area under concentration-response curve [2]
CCC(C)N(C)C(=O)c1cc2ccccc2c(-c2ccccc2Cl)n1 (stereo unspecified) | 337 | 492
Cn1cnc2c1c(=O)[nH]c(=O)n2C | 575 | 544
C[C@@H](Nc1ncnc2[nH]c(-c3ccc(O)cc3)cc12)c1ccccc1 | 328 | 300
CC1(C)CN(C(=O)c2ccc(-c3cccc4nc(NC(=O)C5CC5)nn34)cc2)C1 | 381 | 345
Cn1ncc(Cl)c1-c1cc(C(=O)N[C@H](CN)Cc2cccc(F)c2)sc1Cl | 335 | 305
CCc1ccc(CCOc2ccc(CC3SC(=O)NC3=O)cc2)nc1 (stereo unspecified) | 110 | 112
CC(C)c1ccccc1Cc1cc(C(=O)Nc2ccc([S+](=O)([O-])c3ccccc3C(C)(C)C)cc2)c(O)c(O)c1O | 205 | 293
C/N=c1\ncc2cc(-c3cc(N/C(O)=N/CCC(C)(C)C)c(F)cc3C)c(C)nc2[nH]1 | 474 | 454
CCOC(=O)O[C@@]1(CC[C@H]2[C@@H]3CCC/4=C/C(=O)/C=C\[C@]4(C)[C@H]3[C@@H](O)C[C@]12C)C(=O)OCCl | 395 | 364
CC(C)(S)[C@@H](N)C(=O)O | 711 | 637
C[C@H]1C[C@H]2[C@@H]3CC[C@](O)(C(=O)CO)[C@@]3(C)C[C@H](O)[C@@H]2[C@@]\4(C)/C=C\C(=O)\C=C14 | 553 | 520
CN[C@@H](C)[C@H]1[C@H](O)C[C@@]2(C)[C@@H]3CC[C@H]4C(C)(C)[C@@H](NC)CC[C@@]45C[C@@]35CC[C@]12C | 613 | 546
C[N]1N=CC=C1C/2=C(\C)N(C(=O)C(=C2)/C(=O)NCC3=NC=C(C=C3)[S+](C)([O-])=O)C4=CC=CC(=C4)C(F)(F)F | 277 | 380
C/C(O)=C(\C#N)C(=O)Nc1cc(Br)ccc1Br | 456 | 446
CC(=O)N[C@H]1CSSC[C@@H](C(N)=O)NC(=O)[C@H](C(C)C)NC(=O)[C@H](C)NC(=O)[C@H](Cc2cnc[nH]2)NC1=O | 551 | 501
O=C(/C=C/c1ccc(O)cc1)c1ccc(O)cc1O | 492 | 465
COC1=C(OC)C=C2C(=CC=NC2=C1)OC3=CC=C(NC(=O)\C4=C\N(C(C)C)C(=O)N(C4=O)C5=CC=C(F)C=C5)C=C3F | 460 | 489
COc1cc2ncnc(Oc3cccc(NC(=O)Nc4cc(C(C)(C)C(F)(F)F)on4)c3)c2cc1OC | 467 | 446
CCCCCC[C@H]1C(=O)O[C@H](C)[C@H](NC(=O)c2cccc(NC=O)c2O)C(=O)O[C@@H](C)[C@@H]1OC(=O)CC(C)C | 467 | 491
Cc1ccc(-c2ccc3c(ccc4sc5c(c43)NC[C@@H](C)NC5=O)n2)cn1 | 504 | 473

SMILES | area under concentration-response curve [1] | area under concentration-response curve [2]
O=C\1N(N\C=C1[N]2C=CN=N2)C3=NC=NC(=C3)N4CCOCC4 | 521 | 492
Cc1nc(N)sc1-c1ccnc(Nc2ccc(N3CCOCC3)cc2)n1 | 414 | 400
NC(=O)c1nc(F)cnc1O | 553 | 506
CC(=O)Oc1ccccc1C(=O)O | 402 | 357
COc1ccc(C2(C#N)CCC(C(=O)O)CC2)cc1OC1CCCC1 (stereo unspecified) | 606 | 548
CCC(C)(C)C(=O)O[C@H]1C[C@@H](C)\C=C2\C=C/[C@H](C)[C@H](CC[C@@H]3C[C@@H](O)CC(=O)O3)[C@@H]12 | 565 | 399
NC\1=N\C(=O)N(\C=C1F)[C@H]2C[C@H](O)[C@@H](CO)O2 | 416 | 334
Cc1c(CCOc2ccc(C(=O)O)cc2)c2cc(Cl)ccc2n1C(c1ccccc1)c1ccccc1 | 600 | 536
COC1=C(OC)C=C2C(=C1)C(=O)N(CCC[N]3C=CN=C3)\C4=C2\C(=O)C5=CC6=C(OCO6)C=C45 | 517 | 468
O=C/1NC(=O)C(=C1C2=CN=C3C=CC=C[N]23)/C4=C[N]5CCN(CC6=C5C4=CC=C6)C(=O)N7CCOCC7 | 526 | 514
O=C(Nc1nc2ccccc2n1CCN1CCOCC1)c1cccc([N+](=O)[O-])c1 | 549 | 527
COC/1=C(\CNC(=O)C2=C(C)[N]([C@H](C)C3CCOCC3)C4=CC=CC=C24)C(=O)NC(=C1)/C | 429 | 357
CN1CCCN(CC1)C2=CC=C3C(=O)\C(=C/4SC5=C(C=CC=C5)N4C3=N2)C(=O)NCC6=CN=C(C)C=N6 | 554 | 528
CC(C)CC(N(C)C)C1(c2ccc(Cl)cc2)CCC1 (stereo unspecified) | 349 | 291
CCn1c(C(=O)N(C2CC2)C2CC2)cc2c3c(ncn3C)c(Nc3cc(C)n(C)n3)nc21 | 540 | 422
COC(=O)N1CC2(CC2)C[C@H](C(=O)NO)[C@H]1C(=O)N1CCN(c2ccccc2)CC1 | 470 | 412
Cn1cc(-c2cnn3c(N)c(Br)c(C4CCCNC4)nc23)cn1 (stereo unspecified) | 557 | 516
O=C(Nc1cnn2ccc(N3CCC[C@@H]3c3cc(F)ccc3F)nc12)N1CC[C@H](O)C1 | 554 | 534
COC1=CC=C2C(=CC=NC2=C1)OC3=CC=C(NC(=O)\C4=C(C)\N(CC(C)(C)O)N(C4=O)C5=CC=CC=C5)C=C3F | 459 | 398
Cn1cc(-c2ccc3c(c2)CCN3C(=O)Cc2cccc(C(F)(F)F)c2)c2c(N)ncnc21 | 577 | 523

SMILES | area under concentration-response curve [1] | area under concentration-response curve [2]
CN1C(=O)[C@@H](NC(=O)c2nc(Cc3ccccc3)n[nH]2)COc2ccccc21 | 559 | 536
OC(=O)/C1=C/CCN(CCOC(C2=CC=C(C=C2)C(F)(F)F)C3=CC=C(C=C3)C(F)(F)F)C1 | 569 | 548
N[C@@H](Cc1c[nH]c2ccc(O)cc12)C(=O)O | 567 | 483
CO[C@H]1CC[C@]2(CC1)CC3=C(C=C(C=C3)C4=CN=CC(=C4)C#CC)[C@@]2/5\N=C(C)/C(=N5)N | 532 | 487
CN1C(=O)C[C@H](C(=O)N[C@@H](Cc2cnc[nH]2)C(=O)N2CCC[C@H]2C(N)=O)NC1=O | 589 | 537
CCN1\C=C(C(O)=O)/C(=O)C2=C1C=C(N3CCN(C)CC3)C(=C2)F | 555 | 511
Cc1c[nH]c(-c2cnc(NCCNc3ccc(C#N)cn3)nc2-c2ccc(Cl)cc2Cl)n1 | 558 | 538
Cc1ccccc1C(C(=O)NC1CCCCC1)N(C(=O)CNc1ccc(C#N)cc1)c1cccc(F)c1 (stereo unspecified) | 507 | 485
COC1=C(OC)C=C2C(=C1)C(=O)N(CCCN3CCOCC3)\C4=C2\C(=O)C5=C4C=C6OCOC6=C5 | 463 | 400
O=C(NNc1ccccc1)c1ccncc1 | 527 | 483
CN1C(=O)N[C@H](Cc2c[nH]c3c(Cl)cccc23)C1=O | 445 | 425
CNC(=O)c1ccc2c(c1)NC(=O)/C2=C(\Nc1cccc(CN(C)C)c1)c1ccccc1 | 441 | 323
Cc1cc(Oc2ccc3nc(COc4ccc(CC5SC(=O)NC5=O)cc4)n(C)c3c2)cc(C)c1N (stereo unspecified) | 556 | 512
O=C(O)CC/C=C\CC[C@@H]1[C@@H](N2CCCCC2)[C@@H](O)C[C@@H]1OCc1ccc(-c2ccccc2)cc1 | 424 | 389
NC(=O)c1cnc2[nH]ccc2c1NC1C2CC3C[C@H]1CC(O)(C3)C2 (stereo partly specified) | 547 | 519
O=[S+]([O-])(F)Cc1ccccc1 | 517 | 510
Cc1csc(-c2nnc(Nc3ccc(Oc4ncccc4-c4ccnc(N)n4)cc3)c3ccccc23)c1 | 470 | 504
O=C1OC(COc2ccccc2[N+](=O)[O-])CC1Cc1ccccc1 (stereo unspecified) | 521 | 412
